According to patent US9808434B2, “Compound for treating cancer and diabetes” (CITY OF HOPE, priority 2011, dated 2017):

Legend:
U251 = assay: Glioma ATP viability assay, U251; type: cell-based; details: Homo sapiens, U-251, 72 h
Procedure: Cells of each cell line (U251, U87, PBT-017, PBT018, PBT003 and PBT028) were treated with various concentrations (0˜100 μM) of COH-SR4 for 72 hours. Cell viabilities were determined by ATP viability assays. Data were represented as a ratio to vehicle (DMSO) control, and plotted as mean±SEM (n=12) obtained from 2˜3 experiments (FIG. 34A).
Cells of each cell line (U87, U251, PBT003 and PVT-017) were treated with various concentrations (0˜100 μM) of COH-SR4 for 72 hours. Cell viabilities were determined by ATP viability assays. Data were represented as a ratio to vehicle (DMSO) control, and plotted as mean±SEM (n=12) obtained from 2-3 experiments (FIG. 34B).
Cells of each cell line were treated with various concentrations (0˜100 μM) of COH-SR4 or various concentrations (0˜1000 μM) of TMZ for 72 hours. Cell viabilities were determined by ATP viability assays. Data were represented as a ratio to untreated cells as control, and plotted as mean±SEM (n=12) obtained from 2˜3 experiments (FIGS. 43A-B).

H-358 and H-520 cells = assay: Cell cycle FACS analysis, lung cancer; type: cell-based, human
Procedure: 2×10^5 cells were treated with COH-SR4 (0 μM, 5 μM or 10 μM) for 18 h at 37° C. After treatment, floating and adherent cells were collected, washed with PBS, and fixed with 70% ethanol. On the day of flow analysis, cell suspensions were centrifuged; counted and same numbers of cells were resuspended in 500 μL PBS in flow cytometry tubes. Cells were then incubated with 2.5 μL of RNase (stock 20 mg/mL) at 37° C. for 30 min after which they were treated with 10 μL of propidium iodide (stock 1 mg/mL) solution and then incubated at room temperature for 30 min in the dark. The stained cells were analyzed using the Beckman Coulter Cytomics FC500, Flow Cytometry Analyzer. Results were processed using CXP2.2 analysis software from Beckman Coulter.
In the context of the elevation of GSTs in lung cancer, the impact of COH-SR4 on the catalytic activity of GSTs towards 1-chloro 2,4-dinitro benzene (CDNB), a model substrate used for GST activity was analyzed. GST activity towards 1-chloro 2,4-dinitro benzene (CDNB) and its inhibition by COH-SR4 was performed in 28000×g crude supernatant prepared from H1417, H1618, H520 and H358 cells. The inhibitory effect of COH-SR4 on GST was studied at a fixed concentration of GSH and CDNB (1 mM each) and varying concentrations of inhibitor. The enzymes were pre-incubated with the inhibitor for 5 min at 37° C. prior to the addition of the substrates. […]

B16 mouse melanoma tumor = assay: Western-blot of signaling proteins in B16 tumor tissue lysates; type: in vivo; details: band density ratio
Procedure: Western-blot analyses of signaling proteins in tumor tissue lysates in control and COH-SR4 treated groups were shown in FIG. 58. Crude fraction (about 50 μg) and WB with various antibodies were used.

[1] = tested on: B16-F0 and A2058 melanoma cells; assay: TUNEL apoptosis assay, melanoma; type: cell-based; details: 24 h
Procedure: For TUNEL assay, 1×10^5 cells were grown on the cover slips for ˜12 h followed by treatment with COH-SR4 (5 μM or 10 μM) or elesclomol (5 μM) for 24 h. Apoptosis was determined by the labeling of DNA fragments with terminal deoxynucleotidyl-transferase dUTP nick-end labeling (TUNEL) assay using Promega fluorescence apoptosis detection system, and examined using Zeiss LSM 510 META laser scanning fluorescence microscope with filters 520 and 620 nm according to the protocol described previously (91). Photographs taken at identical exposure at ×400 magnification are presented.

[2] = Blood chemistries in C57 B mice; type: in vivo, mouse; details: 4 mg/kg b.w. alternate day, 2 weeks
Procedure: To evaluate the potential toxicity of COH-SR4 on animals, C57 B mice were treated with 0.1 mg/mice (4 mg/kg b.w.) of COH-SR4 or with vehicle on alternate day for 2 weeks (n=6). After the treatment period, blood and plasma/serum were isolated and analyzed. […] The plasma alanine transaminase (ALT) and alkaline phosphatase (ALP) were moderately higher in COH-SR4-treated mice (p<0.05), while the levels of two other liver enzymes; aspartate transaminase (AST) and lactate dehydrogenase (LDH) were similar with control mice (Table 5).

[3] = tested on: SKOV3, MADH2744 and A2780 DPPr cells; assay: Ovarian cancer cell viability, cellular acid phosphatase activity; type: cell-based, human; details: 48 hours, 0-10 μM
Procedure: SKOV3 is a cisplatin resistant human ovarian cancer cell line. Human ovarian cancer cells (SKOV3, MADH2744, and […]) were incubated with COH-SR4 at various concentrations (0˜10 μM) or without COH-SR4 for 48 hours. Cells Viabilities were determined by measuring cellular acid phosphatase activities. Data were represented as a ratio to vehicle (DMSO) control.

O=C(Nc1cc(Cl)cc(Cl)c1)Nc1cc(Cl)cc(Cl)c1 [COH-SR4, 1,3-bis(3,5-dichlorophenyl) urea]
IC50 (U251; Table 1): 2100 nM
IC50 (U251; Table 2): 2000 nM
cell cycle arrest (H-358 and H-520 cells): induced G0/G1 phase arrest in a concentration dependent manner
Akt, ratio COH-SR4 group/Control Group (B16 mouse melanoma tumor): 0.84
Bcl2, ratio COH-SR4 group/Control Group (B16 mouse melanoma tumor): 0.39
Bim, ratio COH-SR4 group/Control Group (B16 mouse melanoma tumor): 5.8
CDK4, ratio COH-SR4 group/Control Group (B16 mouse melanoma tumor): 0.29
Cyclin B1, ratio COH-SR4 group/Control Group (B16 mouse melanoma tumor): 0.32
Fibronectin, ratio COH-SR4 group/Control Group (B16 mouse melanoma tumor): 0.22
Vimentin, ratio COH-SR4 group/Control Group (B16 mouse melanoma tumor): 0.39
pAMPK, ratio COH-SR4 group/Control Group (B16 mouse melanoma tumor): 3.1
pAkt, ratio COH-SR4 group/Control Group (B16 mouse melanoma tumor): 0.32
apoptosis (DNA fragmentation, TUNEL) ([1]; 5 μM): induced apoptosis
apoptosis (DNA fragmentation, TUNEL) ([1]; 10 μM): induced apoptosis
Hematocrit ([2]; mean ± SE, n=6): 41.0 ± 0.7%
Hemoglobin ([2]; mean ± SE, n=6): 13.9 ± 0.4 g/dL
Platelets ([2]; mean ± SE, n=6): 1055 ± 124 ×10^3/uL
RBC ([2]; mean ± SE, n=6): 8.7 ± 0.2 ×10^6/uL
WBC ([2]; mean ± SE, n=6): 7.4 ± 0.9 ×10^3/uL
ALP ([2]; plasma/serum): 119.3 ± 2.4 units/L
ALT ([2]; plasma/serum): 73.3 ± 2.4 units/L
AST ([2]; plasma/serum): 48.0 ± 3.0 units/L
Albumin ([2]; plasma/serum): 2.4 ± 0.1 g/dL
Cholsterol ([2]; plasma/serum): 82.0 ± 0.1 mg/dL
Creatinine ([2]; plasma/serum): 0.2 ± 0.0 mg/dL
Glucose ([2]; plasma/serum): 304.2 ± 21.1 mg/dL
LDH ([2]; plasma/serum): 822.7 ± 56.0 units/L
Triglycerides ([2]; plasma/serum): 78.7 ± 2.4 mg/dL
cytotoxicity on regular and cisplatin-resistant ovarian cancer cells [3]: dose-dependent cytotoxicity and anti-proliferative effects
